Source: patent publication US6506901B2, “Substituted 2-(S)-hydroxy-3-(piperidin-4-yl-methylamino)-propyl ethers and substituted 2-aryl-2-(R)-hydroxy-1-(piperidin-4-yl-methyl)-ethylamine β-3 adrenergic receptor agonists” (Wyeth, priority 2000, dated 2003)

Molecular target: T1, human β3 receptors (Homo sapiens, UniProt P13945)
T1 construct: Full length β3 AR clones (402 amino acids) containing the last 6 amino acids of hβ3—AR; expressed in transfected cells; host or cells: CHO cells
Assay: cAMP response (SPA) in CHO cells expressing cloned human β3 adrenergic receptor
Assay type: cell-based
Conditions: for EC50: CHO cells expressing human β3 receptor, cAMP, 30 min incubation, 10^−9 M to 10^−5 M; for IA(β3): maximal response compared to the maximal response of isoproterenol at 10^−5 M
Protocol: Binding to the receptors was measured in Chinese Hamster ovary (CHO) cells that were transfected with adrenergic receptors.
Cloning of Human β3-AR Genomic DNA: cDNA was constructed by ligating four polymerase chain reaction (PCR) products using the following primers: an ATG-NarI fragment, sense primer 5′-[…]3′ and anti-sense primer 5′ […]3′; a NarI-AccI fragment, 5′ […]3′ as sense and 5′ […]3′ as anti-sense primer; an AccIi-StyI fragment, sense primer 5′ […]3′ and anti-sense primer 5′ […]3′ and a StyI-TAG fragment, with sense primer 5′ […]3′ and anti-sense primer 5′ […]3′. The corresponding primer sequences are described in Mantzoros, C. […] The four fragments are ligated into a pUC 18 plasmid (Gibco-BRL) and sequenced.
CHO cells were grown in 24-well tissue culture plates in Dulbecco's Modified Eagle Media with 10% fetal bovine serum, MEM non-essential amino acids, Penicillin-Streptompycin and Geneticin. […] Isoproterenol (10^−5 M) was used as an internal standard for comparison of activity. Cells were incubated at 37° C. on a rocker for 30 min with the β3 cells and 15 min for β1 and β2 cells. Incubation was stopped with the addition of 0.2N HCl and neutralized with 2.5N NaOH. The plates, containing the cells and neutralized media, were stored at −20 degrees celsius until ready to test for cAMP using the SPA test kit (Amersham).
Data Analysis and Results: Data collected from the SPA test procedure were analyzed as per cent of the maximal isoproterenol response at 10^−5 M. Activity curves were plotted using the SAS statistical and graphics software.

T1 sequence (P13945 whole entry): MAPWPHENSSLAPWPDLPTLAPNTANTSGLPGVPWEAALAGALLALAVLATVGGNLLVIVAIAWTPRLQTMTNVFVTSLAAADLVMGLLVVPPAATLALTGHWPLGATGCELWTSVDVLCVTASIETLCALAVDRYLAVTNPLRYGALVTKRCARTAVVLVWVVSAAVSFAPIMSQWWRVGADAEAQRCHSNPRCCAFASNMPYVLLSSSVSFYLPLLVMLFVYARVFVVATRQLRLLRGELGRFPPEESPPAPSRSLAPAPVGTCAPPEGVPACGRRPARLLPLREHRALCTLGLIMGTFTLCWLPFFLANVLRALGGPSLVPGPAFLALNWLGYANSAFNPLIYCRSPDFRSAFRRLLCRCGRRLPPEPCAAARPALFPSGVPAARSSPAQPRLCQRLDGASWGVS

| SMILES | EC50 | IA(β3) |
| --- | --- | --- |
| CS(=O)(=O)Nc1cc([C@@H](O)CNCC2CCN(S(=O)(=O)c3cccc4ccccc34)CC2)ccc1O [Example 153, N-{2-hydroxy-5-[(1R)-1-hydroxy-2-({[1-(1-naphthylsulfonyl)piperidin-4-yl]methyl}amino)ethyl)phenyl}methanesulfonamide] | 42 nM | 0.76 |
| COc1ccc(S(=O)(=O)N2CCC(CNC[C@H](O)COc3cccc4[nH]c5ccccc5c34)CC2)cc1 [Example 33, (2S)-1-(9H-Carbazol-4-yloxy)-3-{[1-(4-methoxy-benzenesulfonyl)-piperidin-4-ylmethyl]-amino}-propan-2-ol] | 141 nM | 0.68 |
| O=C(NC1CCCCC1)N1CCC(CNC[C@H](O)COc2ccc(O)cc2)CC1 [Example 57, 4-{[(2S)-2-Hydroxy-3-(4-hydroxy-phenoxy)-propylamino]-methyl}-piperidine-1-carboxylic Acid Cyclohexylamide] | 3190 nM | 0.46 |
| CC(C)S(=O)(=O)N1CCC(CNC[C@H](O)COc2cccc3[nH]c4ccccc4c23)CC1 [Example 32, (2S)-1-(9H-Carbazol-4-yloxy)-3-{[1-(ropane-2-sulfonyl)-piperidin-4-ylmethyl]-amino}-propan-2-ol] | 123 nM | 0.8 |
| COc1ccc(S(=O)(=O)N2CCC(CNC[C@H](O)COc3ccc(O)cc3)CC2)cc1OC [Example 43, 4-((2S)-2-Hydroxy-3-{[1-(3,4-dimethoxy-benzenesulfonyl)-piperidin-4-ylmethyl]-amino}-propoxy)-phenol] | 880 nM | 0.68 |
| Oc1ccc2[nH]c3ccccc3c2c1OC[C@@H](O)CNCC1CCN(CCC(F)(F)F)CC1 [Example 15, 4-((2S)-2-Hydroxy-3-{[1-(3,3,3-trifluoro-propyl)-piperidin-4-ylmethyl]-amino}-propoxy)-9H-carbazol-3-ol] | 12500 nM | 0.52 |
| CS(=O)(=O)Nc1cc([C@@H](O)CNCC2CCN(c3ccc(C(=O)NC(Cc4ccccc4)C(=O)O)cc3)CC2)ccc1O (stereo in doubt) [Example 109, (2S)-2-{[4-(4-{[((2R)-2-Hydroxy-2-{4-hydroxy-3-[(methylsulfonyl)amino]phenyl}-ethyl)amino]methyl}piperidin-1-yl)benzoyl]amino}-3-phenylpropanoic Acid] | 31 nM | 1.2 |
| O=c1[nH]c2cccc(OC[C@@H](O)CNCC3CCN(S(=O)(=O)c4ccc5ccccc5c4)CC3)c2[nH]1 [Example 157, 4-{[(2S)-2-hydroxy-3-({[1-(2-naphthylsulfonyl)piperidin-4-yl]methyl}amino)propyl]oxy}-1,3-dihydro-2H-benzimidazol-2-one] | 670 nM | 1 |
| O=C(NC1CCCCC1)N1CCC(CNC[C@H](O)COc2cccc3[nH]c4ccccc4c23)CC1 [Example 56, 4-{[(2S)-3-(9H-Carbazol-4-yloxy)-2-hydroxy-propylamino]-methyl}-piperidine-1-carboxylic Acid Cyclohexylamide] | 110 nM | 0.53 |
| CS(=O)(=O)Nc1cc([C@@H](O)CNCC2CCN(S(=O)(=O)c3ccc(NC(=O)N4CCC[C@H]4C(=O)O)cc3)CC2)ccc1O [Example 112, (2S)-1-({4-[(4-{[((2R)-2-Hydroxy-2-{4-hydroxy-3-[(methylsulfonyl)amino]phenyl}-ethyl)amino]methyl}piperidin-1-yl)sulfonyl]anilino}carbonyl)pyrrolidine-2-carboxylic Acid] | 131 nM | 0.93 |
| COc1ccc(S(=O)(=O)N2CCC(CNC[C@H](O)COc3cccc4c3CC(=O)N4)CC2)cc1OC [Example 44, 4-((2S)-3-{[1-(3,4-Dimethoxy-benzenesulfonyl)-piperidin-4-ylmethyl]-amino}-2-hydroxy-propoxy)-1,3-dihydro-indol-2-one] | 421 nM | 0.46 |
| O=C(Nc1ccc(S(=O)(=O)N2CCC(CNC[C@H](O)COc3ccc(O)cc3)CC2)cc1)c1n[nH]c2ccccc12 [Example 92, 1H-Indazole-3-carboxylic Acid [4-(4-{[(2S)-2-Hydroxy-3-(4-hydroxy-phenoxy)-propylamino]-methyl}-piperidine-1-sulfonyl)-phenyl]-amide] | 160 nM | 0.82 |
| CCOC(=O)c1cnn(-c2ccc(S(=O)(=O)N3CCC(CNC[C@H](O)c4ccc(O)c(NS(C)(=O)=O)c4)CC3)cc2)c1 [Example 100, Ethyl 1-{4-[(4-{[((2R)-2-Hydroxy-2-{4-hydroxy-3-[(methylsulfonyl)amino]-phenyl}ethyl)amino]methyl}piperidin-1-yl)sulfonyl]phenyl}-1H-pyrazole-4-carboxylate] | 41 nM | 1 |
| O=c1[nH]c2cccc(OC[C@@H](O)CNCC3CCN(CCC(F)(F)F)CC3)c2[nH]1 [Example 22, 4-((2S)-2-Hydroxy-3-{[1-(3,3,3-trifluoro-propyl)-piperidin-4-ylmethyl]-amino}-propoxy)-1,3-dihydro-benzoimidazol-2-one] | 1210 nM | 0.53 |
| COC(=O)COc1ccc(CNC(=O)Nc2ccc(S(=O)(=O)N3CCC(CNC[C@H](O)c4ccc(O)c(NS(C)(=O)=O)c4)CC3)cc2)c(F)c1 [Example 88, [3-Fluoro-4-[[[[[4-[[4-[[[(R)-2-hydroxy-2-[4-hydroxy-3-[(methylsulfonyl)amino]-phenyl]ethyl]amino]-methyl]-1-piperidinyl]sulfonyl]phenyl]amino]-carbonyl]-amino]methyl]phenoxy]acetic Acid, Methyl Ester] | 22 nM | 1 |
| CC(C)(C)c1ccc(S(=O)(=O)N2CCC(CNC[C@H](O)c3ccc(O)c(NS(C)(=O)=O)c3)CC2)cc1 [Example 163, N-[5-((1R)-2-{[(1-{[4-(tert-butyl)phenyl]sulfonyl}piperidin-4-yl)-methyl]amino}-1-hydroxyethyl)-2-hydroxyphenyl]-methanesulfonamide] | 40 nM | 0.85 |
| CS(=O)(=O)Nc1cc([C@@H](O)CNCC2CCN(S(=O)(=O)c3ccc(NC(=O)NCCc4cc(F)ccc4F)cc3)CC2)ccc1O [Example 81, N-{5-[(1R)-2-({[1-({4-[({[2-(2,5-difluorophenyl)ethyl]amino]-carbonyl)amino}-phenyl}sulfonyl)piperidin-4-yl]methyl}amino)-1-hydroxyethyl]-2-hydroxyphenyl}-methanesulfonamide] | 5 nM | 1.1 |
| CC(C)C[C@H](NC(=O)c1ccc(N2CCC(CNC[C@H](O)c3ccc(O)c(NS(C)(=O)=O)c3)CC2)cc1)C(=O)O [Example 114, (2S)-2-{[4-(4-{[((2R)-2-Hydroxy-2-{4-hydroxy-3-[(methylsulfonyl)amino]phenyl}-ethyl)amino]methyl}piperidin-1-yl)benzoyl]amino}-4-methylpentanoic Acid] | 10 nM | 1 |
| COC(=O)c1ccc(N2CCC(CNC[C@H](O)c3ccc(O)c(NS(C)(=O)=O)c3)CC2)nc1 [Example 107, Methyl 6-(4-{[((2R)-2-Hydroxy-2-{4-hydroxy-3-[(methylsulfonyl)amino]phenyl}-ethyl)amino]methyl}piperidin-1-yl)-nicotinate] | 10 nM | 1.2 |
| COc1ccc(S(=O)(=O)N2CCC(CNC[C@H](O)COc3c(Br)ccc4[nH]c5ccccc5c34)CC2)cc1 [Example 34, (2S)-1-(3-Bromo-9H-carbazol-4-yloxy)-3-{[1-(4-methoxy-benzenesulfonyl)-piperidin-4-ylmethyl]-amino}-propan-2-ol] | 7000 nM | 0.36 |
| Cc1cc2cccc(OC[C@@H](O)CNCC3CCN(S(=O)(=O)c4ccc(NC(=O)Nc5ccccc5)cc4)CC3)c2[nH]1 [Example 61, 1-[4-(4-{[(2S)-2-Hydroxy-3-(2-methyl-1H-indol-7-yloxy)-propylamino]-methyl}-piperidine-1-sulfonyl)-phenyl]-3-phenyl-urea] | 97 nM | 0.4 |
| COc1ccc(S(=O)(=O)N2CCC(CNC[C@H](O)COc3ccc(O)cc3)CC2)cc1 [Example 37, 4-((2S)-2-Hydroxy-3-{[1-(4-methoxy-benzenesulfonyl)-piperidin-4-ylmethyl]-amino}-propoxy)-phenol] | 376 nM | 1.04 |
| O=C(Nc1ccccc1)Nc1ccc(S(=O)(=O)N2CCC(CNC[C@H](O)COc3cccc4[nH]c(=O)[nH]c34)CC2)cc1 [Example 62, 1-[4-(4-{[2-Hydroxy-3-(2-oxo-2,3-dihydro-1H-benzoimidazol-4-yloxy)-propylamino]-methyl}-piperidine-1-sulfonyl)-phenyl]-3-phenyl-urea] | 10 nM | 0.68 |
